Test results taken from PMC5478727, “A Novel Small Molecule GDNF Receptor RET Agonist, BT13, Promotes Neurite Growth from Sensory Neurons in Vitro and Attenuates Experimental Neuropathy in the Rat” (Frontiers in Pharmacology, 2017).

Experiments:
[1] = target: T1, GDNF receptor complexes (cells overexpressing GFRα1/RET) (Homo sapiens, UniProt P07949); experiment: Displacement of 125I-GDNF; type: binding; conditions: BT13 50 μM; n = 5
T1 construct: full-length human RET (long isoform) in pCR3.1; expressed in transfected cells

[2] = target: T2, RET (Homo sapiens, UniProt P07949); experiment: RET phosphorylation assay in MG87RET fibroblasts (GFRα3/RET and GFP/RET); type: cell-based, murine; conditions: 25–50 μM; in the presence and absence of GFRα3 co-receptor
T2 construct: full-length human RET (long isoform) in pCR3.1; expressed in transfected cells; host or cells: MG87RET murine fibroblasts

[3] = target: cannabinoid receptor CB1 (Homo sapiens, UniProt P21554); experiment: CEREP CB1 (h) (agonist radioligand); type: binding; conditions: BT13 1 μM; Cat. No. 0036; average of duplicate; read-out: Percentage of inhibition/potentiation from control
[4] = target: dopamine receptor D1 (Homo sapiens, UniProt P21728); experiment: CEREP D1 (h) (antagonist radioligand); type: binding; conditions: BT13 1 μM; Cat. No. 0044; average of duplicate; read-out: Percentage of inhibition/potentiation from control
[5] = target: neurokinin receptor NK3 (Homo sapiens, UniProt P29371); experiment: CEREP NK3 (h) (antagonist radioligand); type: binding; conditions: read-out: Percentage of inhibition/potentiation from control
[6] = target: T3, serotonin receptor 5-HT1A (Homo sapiens, UniProt P08908); experiment: CEREP 5-HT1A (h) (agonist radioligand); type: binding; conditions: BT13 1 μM; Cat. No. 0131; average of duplicate; read-out: Percentage of inhibition/potentiation from control
T3 construct: purchased CEREP (contract assay) 0131

[7] = target: T4, monoamine oxidase A (MAO-A) (Rattus norvegicus, UniProt P21396); experiment: CEREP MAO-A (antagonist radioligand); type: binding; conditions: BT13 1 μM; Cat. No. 0443; average of duplicate; read-out: Percentage of inhibition/potentiation from control
T4 construct: purchased CEREP (contract assay) 0443

[8] = test system: healthy rats; experiment: Acute nociception and motor coordination in healthy animals; type: in vivo, rat; conditions: BT13 25 mg/kg s.c.
[9] = test system: rats; experiment: Tolerability: weight gain, toxic signs, pathological analysis of major organs; type: in vivo, rat
[10] = test system: dorsal root ganglia neurons of SNL rats; experiment: Immunohistochemistry of DRG neuronal markers in rats with spinal nerve ligation; type: in vivo, rat
Excerpt: DRGs from rats with spinal nerve ligation treated with BT13 or vehicle were embedded in paraffin and sectioned (7 μm thickness). Sections were deparaffinized, subjected to citrate or basic antigen-retrieval procedure and probed with IB4-Alexa 488 [1:200; IB4-Alexa488, Cat# IB4 (isolectin Griffonia simplicifolia IB4) RRID:AB_2314664] and antibodies against calcitonin gene-related peptide (CGRP; 1:10,000, Peninsula Laboratory, Cat# T-4032 RRID:AB_2313775), NPY (1:10,000, Peninsula Laboratory, Cat# T-4070.0050 RRID:AB_518504), pErk1/2 (1:300, Cell Signaling, Cat# 4370L RRID:AB_2297462), pS6 (1:300, Cell Signaling, Cat# 4858L RRID:AB_1031194) or RET [1:100, kind gift of Dr. E. Kramer, Center for Molecular Neurobiology, University Medical Center Hamburg-Eppendorf, Hamburg, Germany (Meka et al., [2015])] and corresponding secondary antibodies conjugated with fluorophores (Donkey Anti-Rabbit Alexa Fluor 647 conjugate, Cat# A31573 RRID:AB_162544; Donkey anti-Mouse Alexa Fluor 647 conjugate, Cat# A-31571 RRID:AB_2536181; Goat anti-Guinea Pig, Alexa Fluor 568 conjugate, Cat# A-11075 RRID:AB_2534119, Thermo Fisher Scientific, USA) or horse radish peroxidase (VECTASTAIN Elite ABC-Peroxidase Kit antibody, Vector Laboratories, CA, USA, Cat# PK-6101 RRID:AB_2336820). In the latter case, to reveal staining slides were treated with ABC and DAB staining kits (Vector Laboratories, CA, USA) according to the manufacturer's instructions. Sections were co-stained with guinea pig anti-PGP9.5 antibodies (Abcam Cat# ab10410 RRID:AB_297150) whenever possible. Nuclei were visualized using hematoxylin or DAPI dyes. Sections were mounted in Immu-Mount (Thermo Scientific, Cat#9990402) or Coverquick 2000 (Q PATH, Cat#05547530) mounting media and images were taken with fluorescent (Zeiss Imager M2 Axio, Carl Zeiss, Germany) or bright-field (Olympus BX-61, Olympus, Japan) microscopes. Neurons were counted for two sections per DRG and the number of cell profiles with nuclei positive for each specific marker was normalized to the total number of the neurons (identified by PGP9.5 staining or by morphology) per section. Ret-positive neurons were clustered by size using Matlab software R2014b (Mathworks, USA). Statistical analysis was performed using data from three to six individual animals. To obtain sufficient sample size, the data from animals treated with 20 and 25 mg/kg of BT13 were combined.

[11] = target: norepinephrine transporter (Homo sapiens, UniProt P23975); experiment: biochemical; conditions: read-out: Percentage of inhibition/potentiation from control
[12] = SNL rats, BT13 vs vehicle, day 12
[13] = SNL rats, vs vehicle-treated animals

neurokinin receptor NK3, sequence (P29371 whole entry): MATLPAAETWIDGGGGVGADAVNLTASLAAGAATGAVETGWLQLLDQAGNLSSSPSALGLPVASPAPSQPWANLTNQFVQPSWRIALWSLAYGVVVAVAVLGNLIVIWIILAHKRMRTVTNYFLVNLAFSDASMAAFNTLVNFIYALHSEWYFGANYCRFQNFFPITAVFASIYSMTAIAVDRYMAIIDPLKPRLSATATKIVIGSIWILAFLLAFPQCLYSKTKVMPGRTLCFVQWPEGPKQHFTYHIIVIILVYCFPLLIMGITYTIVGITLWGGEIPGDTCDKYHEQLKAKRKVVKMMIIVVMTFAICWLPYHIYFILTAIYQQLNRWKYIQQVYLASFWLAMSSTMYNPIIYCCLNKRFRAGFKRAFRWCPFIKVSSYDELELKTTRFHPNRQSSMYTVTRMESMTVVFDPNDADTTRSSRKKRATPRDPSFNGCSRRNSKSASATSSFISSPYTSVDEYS
T3 sequence (P08908 whole entry): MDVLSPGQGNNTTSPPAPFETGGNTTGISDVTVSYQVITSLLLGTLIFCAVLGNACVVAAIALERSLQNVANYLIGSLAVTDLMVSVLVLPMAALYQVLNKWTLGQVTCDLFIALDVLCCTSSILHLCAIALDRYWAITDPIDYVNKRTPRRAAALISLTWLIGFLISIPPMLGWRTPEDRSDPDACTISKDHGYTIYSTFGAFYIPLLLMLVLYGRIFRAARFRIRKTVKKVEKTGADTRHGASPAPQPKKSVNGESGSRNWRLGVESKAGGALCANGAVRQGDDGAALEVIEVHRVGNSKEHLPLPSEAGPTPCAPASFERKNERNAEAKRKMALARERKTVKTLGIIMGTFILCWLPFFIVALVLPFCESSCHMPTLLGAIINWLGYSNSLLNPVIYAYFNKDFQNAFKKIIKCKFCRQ
T2 sequence (P07949 29-1114): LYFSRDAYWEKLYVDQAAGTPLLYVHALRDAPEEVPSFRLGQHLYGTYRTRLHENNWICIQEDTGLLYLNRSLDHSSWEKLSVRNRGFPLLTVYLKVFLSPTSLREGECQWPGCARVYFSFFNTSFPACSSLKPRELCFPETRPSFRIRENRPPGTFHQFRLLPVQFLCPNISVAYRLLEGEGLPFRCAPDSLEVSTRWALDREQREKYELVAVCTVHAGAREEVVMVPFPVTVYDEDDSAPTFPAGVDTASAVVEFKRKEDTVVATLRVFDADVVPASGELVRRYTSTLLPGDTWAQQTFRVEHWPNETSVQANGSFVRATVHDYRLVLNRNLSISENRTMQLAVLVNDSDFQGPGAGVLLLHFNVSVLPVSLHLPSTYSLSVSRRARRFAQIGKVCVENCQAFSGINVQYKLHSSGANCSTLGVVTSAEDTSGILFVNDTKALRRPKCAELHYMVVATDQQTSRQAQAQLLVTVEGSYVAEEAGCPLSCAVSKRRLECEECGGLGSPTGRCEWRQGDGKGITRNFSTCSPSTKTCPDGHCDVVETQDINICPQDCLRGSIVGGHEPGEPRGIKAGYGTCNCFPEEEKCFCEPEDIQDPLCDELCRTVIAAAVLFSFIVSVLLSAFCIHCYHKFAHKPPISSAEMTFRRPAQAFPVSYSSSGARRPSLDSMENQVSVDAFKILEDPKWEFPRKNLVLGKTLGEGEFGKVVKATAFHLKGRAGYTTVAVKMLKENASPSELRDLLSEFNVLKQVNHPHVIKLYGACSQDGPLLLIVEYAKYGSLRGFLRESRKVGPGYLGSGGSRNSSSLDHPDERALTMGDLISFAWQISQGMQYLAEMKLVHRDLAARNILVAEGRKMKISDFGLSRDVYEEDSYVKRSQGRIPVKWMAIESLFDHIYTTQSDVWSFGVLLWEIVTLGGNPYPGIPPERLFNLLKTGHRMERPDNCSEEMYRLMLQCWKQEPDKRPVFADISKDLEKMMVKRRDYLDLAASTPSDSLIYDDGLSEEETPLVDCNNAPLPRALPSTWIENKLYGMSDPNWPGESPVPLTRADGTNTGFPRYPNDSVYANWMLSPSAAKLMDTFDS
T1 sequence (P07949 29-1114, one chain of several): as the sequence (P07949 29-1114) above
T4 sequence (P21396 whole entry): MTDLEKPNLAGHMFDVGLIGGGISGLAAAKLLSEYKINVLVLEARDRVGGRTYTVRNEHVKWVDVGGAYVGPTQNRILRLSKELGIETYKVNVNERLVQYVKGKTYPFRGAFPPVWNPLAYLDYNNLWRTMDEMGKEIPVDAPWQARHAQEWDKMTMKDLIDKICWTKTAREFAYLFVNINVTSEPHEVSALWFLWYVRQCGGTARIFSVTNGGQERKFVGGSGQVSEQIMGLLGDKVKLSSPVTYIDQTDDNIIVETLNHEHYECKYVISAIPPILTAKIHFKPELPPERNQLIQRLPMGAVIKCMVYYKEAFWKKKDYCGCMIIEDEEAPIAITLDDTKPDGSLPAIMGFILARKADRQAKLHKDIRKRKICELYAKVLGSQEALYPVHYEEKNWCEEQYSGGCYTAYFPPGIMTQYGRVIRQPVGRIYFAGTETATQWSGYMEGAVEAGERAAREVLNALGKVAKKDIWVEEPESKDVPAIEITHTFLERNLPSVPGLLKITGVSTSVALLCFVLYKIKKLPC
norepinephrine transporter, sequence (P23975 whole entry): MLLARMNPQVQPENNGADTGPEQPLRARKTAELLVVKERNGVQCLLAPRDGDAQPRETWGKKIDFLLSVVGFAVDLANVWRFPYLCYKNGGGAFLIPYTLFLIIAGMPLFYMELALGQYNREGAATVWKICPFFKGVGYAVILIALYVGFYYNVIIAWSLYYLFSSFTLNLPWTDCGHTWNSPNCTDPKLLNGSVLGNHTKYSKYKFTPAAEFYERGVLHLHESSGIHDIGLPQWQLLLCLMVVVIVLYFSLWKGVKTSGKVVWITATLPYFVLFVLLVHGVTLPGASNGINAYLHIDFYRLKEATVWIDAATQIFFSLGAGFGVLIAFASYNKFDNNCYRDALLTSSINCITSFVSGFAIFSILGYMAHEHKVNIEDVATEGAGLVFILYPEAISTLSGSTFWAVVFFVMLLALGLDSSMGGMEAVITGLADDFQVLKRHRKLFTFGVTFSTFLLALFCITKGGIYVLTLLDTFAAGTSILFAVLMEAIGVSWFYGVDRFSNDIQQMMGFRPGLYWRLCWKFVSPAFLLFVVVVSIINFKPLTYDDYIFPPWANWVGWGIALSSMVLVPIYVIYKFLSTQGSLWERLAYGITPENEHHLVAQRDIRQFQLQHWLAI
dopamine receptor D1, sequence (P21728 whole entry): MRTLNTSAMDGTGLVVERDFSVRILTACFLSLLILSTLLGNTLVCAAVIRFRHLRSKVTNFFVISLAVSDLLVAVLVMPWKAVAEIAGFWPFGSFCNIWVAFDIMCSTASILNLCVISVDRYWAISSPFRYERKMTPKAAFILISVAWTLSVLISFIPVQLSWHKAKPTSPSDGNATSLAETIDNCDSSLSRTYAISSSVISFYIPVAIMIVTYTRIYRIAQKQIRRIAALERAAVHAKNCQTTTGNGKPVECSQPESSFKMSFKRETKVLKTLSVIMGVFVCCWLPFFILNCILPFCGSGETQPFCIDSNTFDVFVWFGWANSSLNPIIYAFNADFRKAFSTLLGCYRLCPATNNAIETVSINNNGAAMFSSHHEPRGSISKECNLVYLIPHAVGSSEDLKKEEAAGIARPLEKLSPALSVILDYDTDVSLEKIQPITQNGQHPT
cannabinoid receptor CB1, sequence (P21554 whole entry): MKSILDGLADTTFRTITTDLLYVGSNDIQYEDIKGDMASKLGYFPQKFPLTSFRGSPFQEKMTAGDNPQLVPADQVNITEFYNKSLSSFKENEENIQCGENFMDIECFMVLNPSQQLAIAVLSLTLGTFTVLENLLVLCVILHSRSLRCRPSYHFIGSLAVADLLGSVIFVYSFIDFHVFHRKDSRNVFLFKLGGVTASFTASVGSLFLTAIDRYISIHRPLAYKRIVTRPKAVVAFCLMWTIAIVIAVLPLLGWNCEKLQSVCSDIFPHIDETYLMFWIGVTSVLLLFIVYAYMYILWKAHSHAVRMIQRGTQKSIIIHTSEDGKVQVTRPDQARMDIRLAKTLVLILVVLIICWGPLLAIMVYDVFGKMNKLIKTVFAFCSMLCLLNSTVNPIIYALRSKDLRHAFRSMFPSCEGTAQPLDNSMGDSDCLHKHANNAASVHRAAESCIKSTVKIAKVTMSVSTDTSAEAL

`CCN(CC)S(=O)(=O)c1ccc(OC)c(N2CCN(C(=O)c3ccc(F)cc3C(F)(F)F)CC2)c1` [BT13] was tested, and the “reduction of 125I-GDNF binding” value [1] was 25 ± 10.2%, the “RET phosphorylation (170 kD mature glycosylated form), Western blotting” value [2] was “elicited phosphorylation” and the inhibition at 1 µM [3] was 9%. It also gave an inhibition at 1 µM [4] of -17%, an inhibition at 1 µM [5] of 0% and an inhibition at 1 µM [6] of -8%. For the same molecule, the inhibition at 1 µM [7] was 5%, the “baseline sensitivity to mechanical stimuli (paw pressure test)” value [8] was “no significant effect” and the “baseline sensitivity to thermal stimuli (acetone test)” value [8] was “no significant effect”. For the same molecule, the “baseline sensitivity to thermal stimuli (hot plate)” value [8] was “no significant effect”, the “baseline sensitivity to thermal stimuli (tail flick)” value [8] was “no significant effect” and the “motor performance (rotarod test)” value [8] was “no significant effect”. The “significant histopathological changes in major organs” value ([9]; after completion of behavioral experiments) was “not detected”, the “acute toxic effects, signs of pain or discomfort” value ([9]; experimental animals treated with BT13) was “No acute toxic effects, signs of pain or obvious discomfort” and the “tumor formation in the tissues of rats” value ([9]; rat, in vivo) was “no tumor formation”. For the same molecule, the “reduction in the number of RET-positive cells in DRGs after SNL” value ([10]; IHC, day 12 after SNL) was “restored”, the “number of large RET-positive neurons in lesioned DRGs” value ([10]; IHC, size above 1,000 μm^2, vs contralateral) was “increased” and the “number of small RET-positive neurons in lesioned DRGs” value ([10]; IHC, size below 1,000 μm^2, vs contralateral) was “decreased”. For the same molecule, the “IB4 positive cells per section in ipsilateral DRGs” value ([10]; SNL rats, BT13 20 and 25 mg/kg combined, day 12) was 3%, the “number of NPY-positive neurons in contralateral DRGs” value ([10]; SNL rats, BT13-treated, vehicle 0.0 ± 0.0) was 0.0 ± 0.0 and the “number of CGRP-positive neurons in contralateral DRGs” value ([10]; SNL rats, BT13-treated, vehicle 34.30 ± 1.344) was 25.09 ± 2.687. For the same molecule, the “number of IB4-positive neurons in contralateral DRGs” value ([10]; SNL rats, BT13-treated, vehicle 44.95 ± 4.295) was 44.82 ± 1.960, the “increase in number of CGRP-positive neurons in ipsilateral DRGs” value [10, 12] was ~ 2 times and the “reduction in number of NPY-positive cells in ipsilateral DRGs” value [10, 12] was ~ 25%. The “number of neurons positive for pErk in DRGs” value [10, 13] was “increased”, the “number of neurons positive for pS6 in DRGs” value [10, 13] was “increased” and the inhibition at 1 µM [11] was -5%.
